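Method: 48-hour compound exposure of cells in 96-well plates, five concentrations, linear interpolation of endpoints. GI50 is the concentration that inhibits growth by half.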 The source made the active and inactive calls. Rule as the data show it: active = GI50 up to about 1.1 µM and inactive = higher.
Assays:
Assay in all cases: NCI tumour cell line growth inhibition, 48 h
UO-31 = tested on: UO-31
SF-295 = tested on: SF-295
NCI-H226 = tested on: NCI-H226
OVCAR-4 = tested on: OVCAR-4
LOX IMVI = tested on: LOX IMVI
SN12C = tested on: SN12C
Hs-578T = tested on: Hs-578T
CCRF-CEM = tested on: CCRF-CEM
HCT-116 = tested on: HCT-116
HL-60 = tested on: HL-60
A498 = tested on: A498
COLO 205 = tested on: COLO 205
SK-OV-3 = tested on: SK-OV-3
PC-3 = tested on: PC-3
SNB-19 = tested on: SNB-19
HOP-62 = tested on: HOP-62
HT-29 = tested on: HT-29
KM12 = tested on: KM12
SK-MEL-2 = tested on: SK-MEL-2

Measured: GI50

O=C1CN(C(=O)C2CCCN2C(=O)C2CCCN2)C(=O)CN1 (stereo unspecified)
inactive: UO-31 > 100 µM | SF-295 > 100 µM | NCI-H226 > 100 µM | OVCAR-4 > 100 µM | LOX IMVI > 100 µM | SN12C > 100 µM | Hs-578T > 100 µM | CCRF-CEM > 100 µM | HCT-116 > 100 µM | HL-60 > 100 µM | A498 55.2 µM | COLO 205 > 100 µM | SK-OV-3 > 100 µM | PC-3 > 100 µM | SNB-19 > 100 µM | HOP-62 > 100 µM | HT-29 > 100 µM | KM12 > 100 µM

COc1cc2c(cc1OC)C1C=NC(C2)c2cc(OC)c(OC)cc21 (stereo unspecified)
inactive: UO-31 60.1 µM | SF-295 > 100 µM | NCI-H226 6.97 µM | OVCAR-4 > 100 µM | LOX IMVI > 100 µM | SN12C > 100 µM | Hs-578T > 100 µM | SK-MEL-2 > 100 µM | HCT-116 > 100 µM | HL-60 50.7 µM | A498 > 100 µM | COLO 205 89.7 µM | SK-OV-3 > 100 µM | PC-3 > 100 µM | SNB-19 > 100 µM | HOP-62 > 100 µM | HT-29 > 100 µM | KM12 > 100 µM

O=c1c2ncn(C3CC(O)C(CO)O3)c2nnn1Cc1ccccc1[N+](=O)[O-] (stereo unspecified)
inactive: UO-31 > 100 µM | SF-295 > 100 µM | NCI-H226 43.6 µM | OVCAR-4 > 100 µM | LOX IMVI > 100 µM | SN12C > 100 µM | Hs-578T > 100 µM | CCRF-CEM > 100 µM | SK-MEL-2 4.78 µM | HCT-116 > 100 µM | HL-60 57.3 µM | A498 > 100 µM | COLO 205 > 100 µM | SK-OV-3 > 100 µM | PC-3 > 100 µM | SNB-19 > 100 µM | HOP-62 > 100 µM | HT-29 > 100 µM | KM12 > 100 µM

CC1CC(N2CCOCC2)=Nc2ccccc2N1C (stereo unspecified)
inactive: UO-31 > 100 µM | SF-295 > 100 µM | NCI-H226 > 100 µM | OVCAR-4 > 100 µM | SN12C > 100 µM | Hs-578T > 100 µM | CCRF-CEM > 100 µM | SK-MEL-2 > 100 µM | HCT-116 > 100 µM | HL-60 > 100 µM | A498 > 100 µM | COLO 205 > 100 µM | SK-OV-3 > 100 µM | PC-3 > 100 µM | SNB-19 > 100 µM | HOP-62 > 100 µM | HT-29 > 100 µM | KM12 > 100 µM

N#CC(C#N)=c1c2ccccc2c(=C(C#N)C#N)c2ccccc12
inactive: NCI-H226 17.7 µM | LOX IMVI 17.8 µM | SN12C 16.6 µM | Hs-578T 20.8 µM | CCRF-CEM 7.46 µM | SK-MEL-2 17.1 µM | HCT-116 17.8 µM | HL-60 19.8 µM | A498 23.8 µM | COLO 205 21.2 µM | SK-OV-3 25.1 µM | PC-3 16.1 µM | SNB-19 14.6 µM | HOP-62 19.4 µM | HT-29 18.6 µM | KM12 18.1 µM

O=c1cc(-c2ccccc2)[nH]c2ccc(N3CCCC3)cc12
inactive: UO-31 > 100 µM
active: SF-295 < 0.01 µM | NCI-H226 0.0266 µM | LOX IMVI < 0.0137 µM | SN12C 0.0451 µM | Hs-578T < 0.0173 µM | CCRF-CEM < 0.0149 µM | SK-MEL-2 0.0484 µM | HCT-116 < 0.0113 µM | HL-60 < 0.01 µM | A498 0.0272 µM | COLO 205 0.0196 µM | SK-OV-3 0.0466 µM | PC-3 0.0282 µM | SNB-19 0.0217 µM | HOP-62 0.0163 µM | HT-29 0.0146 µM | KM12 0.039 µM

O=C1OC(c2ccccc2)=N/C1=C\c1ccc(Br)cc1
inactive: SF-295 > 100 µM | NCI-H226 > 100 µM | OVCAR-4 > 100 µM | LOX IMVI > 100 µM | SN12C > 100 µM | Hs-578T > 100 µM | CCRF-CEM 26.4 µM | SK-MEL-2 > 100 µM | HCT-116 > 100 µM | HL-60 > 100 µM | A498 > 100 µM | COLO 205 > 100 µM | SK-OV-3 > 100 µM | PC-3 > 100 µM | SNB-19 > 100 µM | HOP-62 > 100 µM | HT-29 > 100 µM | KM12 > 100 µM

Cc1ccc(C)n2c1nc1ccccc12
inactive: UO-31 91.4 µM | SF-295 > 100 µM | NCI-H226 > 100 µM | SN12C > 100 µM | Hs-578T > 100 µM | CCRF-CEM > 100 µM | HCT-116 > 10 µM | HL-60 > 100 µM | A498 1.46 µM | COLO 205 > 100 µM | SK-OV-3 > 100 µM | PC-3 > 100 µM | SNB-19 > 100 µM | HOP-62 85.5 µM | HT-29 31.9 µM | KM12 > 100 µM
